# In patent US20150197492A1, “NOVEL INDENO[1,2-c]QUINOLIN-11-ONE DERIVATIVES, PREPARATION METHOD AND APPLICATION THEREOF” (National Defense Medical Center, priority 2014, published 2015):
# How the values were obtained:
# Assay in all cases: cells
# Type in all cases: cell-based
# NCI-H226 = NCI-H226 (Non-Small Cell Lung Cancer), 10 μM, 48 hours
# NCI-H23 = NCI-H23 (Non-Small Cell Lung Cancer), 10 μM, 48 hours
# SF-268 = SF-268 (CNS Cancer), 10 μM, 48 hours
# HCT-116 = HCT-116 (Colon Cancer), 10 μM, 48 hours
# SK-MEL-5 = SK-MEL-5 (Melanoma), 10 μM, 48 hours
# HCT-15 = HCT-15 (Colon Cancer), 10 μM, 48 hours
# IGROV1 = IGROV1 (Ovarian Cancer), 10 μM, 48 hours
# SNB-75 = SNB-75 (CNS Cancer), 10 μM, 48 hours
# MDA-MB-231/ATCC = MDA-MB-231/ATCC (Breast Cancer), 10 μM, 48 hours
# HOP-92 = HOP-92 (Non-Small Cell Lung Cancer), 10 μM, 48 hours
# SK-OV-3 = SK-OV-3 (Ovarian Cancer), 10 μM, 48 hours
# M14 = M14 (Melanoma), 10 μM, 48 hours
# NCI-H460 = NCI-H460 (Non-Small Cell Lung Cancer), 10 μM, 48 hours
# SK-MEL-2 = SK-MEL-2 (Melanoma), 10 μM, 48 hours
# MCF7 = MCF7 (Breast Cancer), 10 μM, 48 hours
# A549/ATCC = A549/ATCC (Non-Small Cell Lung Cancer), 10 μM, 48 hours
# K-562 = K-562 (Leukemia), 10 μM, 48 hours
# RXF 393 = RXF 393 (Renal Cancer), 10 μM, 48 hours
# U251 = U251 (CNS Cancer), 10 μM, 48 hours
# HCC-2998 = HCC-2998 (Colon Cancer), 10 μM, 48 hours
# COLO 205 = COLO 205 (Colon Cancer), 10 μM, 48 hours
# RPMI-8226 = RPMI-8226 (Leukemia), 10 μM, 48 hours
# LOX IMVI = LOX IMVI (Melanoma), 10 μM, 48 hours
# A498 = A498 (Renal Cancer), 10 μM, 48 hours
# HL-60 (TB) = HL-60 (TB) (Leukemia), 10 μM, 48 hours
# HOP-62 = HOP-62 (Non-Small Cell Lung Cancer), 10 μM, 48 hours
# UO-31 = UO-31 (Renal Cancer), 10 μM, 48 hours
# SF-539 = SF-539 (CNS Cancer), 10 μM, 48 hours
# SW-620 = SW-620 (Colon Cancer), 10 μM, 48 hours
# NCI/ADR-RES = NCI/ADR-RES (Ovarian Cancer), 10 μM, 48 hours
smiles,measurement,setting,value
"COc1nc2ccccc2c2c1-c1ccc(Cl)cc1C2=O [SJ-27, 6-Methoxy-9-chloro-11H-indeno[1,2-c]quinolin-11-one]",growth percentage,NCI-H226,89.22%
same,growth percentage,NCI-H23,93.26%
same,growth percentage,SF-268,113.64%
same,growth percentage,HCT-116,88.60%
same,growth percentage,SK-MEL-5,98.51%
same,growth percentage,HCT-15,94.98%
same,growth percentage,IGROV1,96.92%
same,growth percentage,SNB-75,59.75%
same,growth percentage,MDA-MB-231/ATCC,74.61%
same,growth percentage,HOP-92,77.75%
same,growth percentage,SK-OV-3,119.79%
same,growth percentage,M14,96.50%
same,growth percentage,NCI-H460,98.27%
same,growth percentage,SK-MEL-2,109.44%
same,growth percentage,MCF7,71.98%
same,growth percentage,A549/ATCC,99.70%
same,growth percentage,K-562,108.53%
same,growth percentage,RXF 393,114.49%
same,growth percentage,U251,97.67%
same,growth percentage,HCC-2998,104.46%
same,growth percentage,COLO 205,108.91%
same,growth percentage,RPMI-8226,90.30%
same,growth percentage,LOX IMVI,116.91%
same,growth percentage,A498,93.51%
same,growth percentage,HL-60 (TB),108.77%
same,growth percentage,HOP-62,96.01%
same,growth percentage,UO-31,55.69%
same,growth percentage,SF-539,91.49%
same,growth percentage,SW-620,98.89%
same,growth percentage,NCI/ADR-RES,94.29%
